We go through 43 molecules from patent EP4011367A1, “COMPOUNDS FOR USE IN THE TREATMENT OF COVID-19” (priority 2020, dated 2022).

Molecules are shown by their SMILES. pIC50: −log10 of the molar value. Structures can show the parent of a compound that is named as a salt. Where two headings read alike, the source gives them in different places.

The target of the experiment is T1, SARS-CoV-2 3CL-Pro (Severe acute respiratory syndrome coronavirus 2, UniProt P0DTD1).
T1 construct: SARS-CoV-2 main protease (3CL-Pro), also termed M-Pro
Put plainly: biochemical. Conditions: for inhibition at 20 µM: read-out: 3CL-Pro Inhibition [%] Primary Screen (20 µM).

The mark [1] stands for this setting: dose response, 8 concentrations, absence of DTT, 60 min pre-incubation at 37 °C, 15 µM substrate, 60 nM enzyme, read-out: IC50.

For the molecule `COc1ccc2[nH]c([S+]([O-])Cc3ncc(C)c(OC)c3C)nc2n1` (racemic) [compound 9, (±)-5-Methoxy-2-(4-methoxy-3,5-dimethylpyridin-2-ylmethylsulfinyl)imidazo[4,5-b]pyridine], the negative-log IC50 (pIC50) is 6.01 and the inhibition at 20 µM was 69.1%.

Consider `Oc1cc2c(cc1O)[C@@H]1c3ccccc3CN[C@H]1CC2` (relative stereo) [compound 77, trans-10,11-Dihydroxy-5,6,6a,7,8,12b-hexahydrobenzo[a]phenanthridine], for which the pIC50 was 5.98.

For `O=c1cc(-c2ccccc2)oc2cc(O)c(O)c(O)c12` [compound 1, 5,6,7-Trihydroxy-2-phenyl-4H-1-benzopyran-4-one], the inhibition at 20 µM worked out at 97.8%.

Turning to `O=C1c2c(O)cc(O)cc2O[C@H](c2cc(O)c(O)c(O)c2)[C@H]1O` [compound 2, (+)-3(R),5,7-Trihydroxy-2(R)-(3,4,5-trihydroxyphenyl)-3,4-dihydro-2H-1-benzopyran-4-one], the inhibition at 20 µM worked out at 99.7%.

With `O=c1cc(-c2ccc(O)cc2)oc2cc(O)cc(O)c12` [compound 4, 4',5,7-Trihydroxyflavone], the inhibition at 20 µM worked out at 94.5%. Where the note is “read-out: IC50”, the negative logarithm of the IC50 (pIC50) is 5.52.

On to `C[C@@H]1O[C@@H](Oc2c(-c3cc(O)c(O)c(O)c3)oc3cc(O)cc(O)c3c2=O)[C@H](O)[C@H](O)[C@H]1O` [compound 5, 5,7-Dihydroxy-4-oxo-2-(3,4,5-trihydroxyphenyl)-4H-1-benzopyran-3-yl alpha-L-rhamnopyranoside], for which the pIC50 is 5.44 and the inhibition at 20 µM turned out to be 90.6%.

Regarding `O=C(O[C@@H]1Cc2c(O)cc(O)cc2O[C@@H]1c1cc(O)c(O)c(O)c1)c1cc(O)c(O)c(O)c1` [compound 6, (-)-3,4,5-Trihydroxybenzoic acid 5,7-dihydroxy-2(R)-(3,4,5-trihydroxyphenyl)-3,4-dihydro-2H-1-benzopyran-3(R)-ylester], the inhibition at 20 µM is 95.3%.

As to `COCCCOc1ccnc(C[S+]([O-])c2nc3ccccc3[nH]2)c1C` (stereo not drawn) [compound 8, 2-[4-(3-Methoxypropoxy)-3-methylpyridin-2-ylmethylsulfinyl]benzimidazol-1-ide sodium salt], the inhibition at 20 µM was determined as 94.3%. Moreover, the pIC50 (read-out: IC50) is 6.13.

As for `O=c1c2ccccc2[se]n1-c1ccccc1` [compound 10, 2-Phenyl-1,2-benzisoselenazol-3(2H)-one], the inhibition at 20 µM came to 100%.

Take `Cc1ccc(C)c(-n2sc3cc(F)ccc3c2=O)c1` [compound 11, 2-(2,5-Dimethylphenyl)-6-fluoro-1,2-benzothiazol-3(2H)-one]: the inhibition at 20 µM amounted to 101%. Under “read-out: IC50”, the negative-log IC50 (pIC50) is 7.70.

For `Cc1ccc(-n2sc3ccccc3c2=O)cc1` [compound 12, 2-(4-methylphenyl)-1,2-benzothiazol-3-one], the pIC50 is 7.70 and the inhibition at 20 µM stood at 101%.

In the case of `CN(C)S(=O)(=O)c1cccc(-n2sc3ccccc3c2=O)c1` [compound 13, N,N-di methyl-3-(3-oxo-1,2-benzothiazol-2-yl)benzenesulfonamide], the inhibition at 20 µM came to 101%. Moreover, the pIC50 under setting [1] was 7.70.

On to `O=c1c2ccccc2sn1-c1ccccc1` [compound 14, 2-phenyl-1,2-benzothiazol-3-one], for which the pIC50 was 7.70 and the inhibition at 20 µM is 100%.

For `O=C1C(Cl)=C(N2CCOCC2)C(=O)N1c1ccc(Cl)c(Cl)c1` [compound 15, 3-chloro-1-(3,4-dichlorophenyl)-4-morpholin-4-ylpyrrole-2,5-dione], the inhibition at 20 µM turned out to be 99.2%. For the same molecule, the pIC50 (read-out: IC50) is 5.94.

Consider `CN1CCN(C2=C(Cl)C(=O)N(c3ccc(Cl)c(Cl)c3)C2=O)CC1` [compound 16, 3-chloro-1-(3,4-dichlorophenyl)-4-(4-methylpiperazin-1-yl)pyrrole-2,5-dione], for which the inhibition at 20 µM is 100%.

Take `Cc1ccc(S(=O)(=O)C=CC#N)cc1` [compound 17, 3-(4-Methylphenylsulfonyl)-2-propenenitrile]: the pIC50 is 6.09 and the inhibition at 20 µM was 95.7%.

`CC(C)(C)c1ccc(S(=O)(=O)/C=C/C#N)cc1` [compound 18, 3-(4-tert-Butylphenylsulfonyl)-2(E)-propenenitrile]: the inhibition at 20 µM was 100%. Besides, where the note is “read-out: IC50”, the pIC50 is 6.08.

Turning to `Cn1sc(=O)n(Cc2ccccc2)c1=O` [compound 19, 4-Benzyl-2-methyl-1,2,4-thiadiazolidine-3,5-dione], the inhibition at 20 µM is 101%. Besides, under “read-out: IC50”, the pIC50 is 6.85.

Turning to `S=c1[nH]nc(Cc2ccccc2)s1` [compound 20, 5-benzyl-3H-1,3,4-thiadiazole-2-thione], the inhibition at 20 µM came out at 101%. In addition, the pIC50 under setting [1] is 6.41.

Turning to `Cc1ccc(S(=O)(=O)N[C@@H](Cc2ccccc2)C(=O)C(=O)CCl)cc1` [compound 21, N-[(2S)-5-chloro-3,4-dioxo-1-phenylpentan-2-yl]-4-methylbenzenesulfonamide], the pIC50 is 5.86 and the inhibition at 20 µM came out at 99.7%.

Take `CC(Cc1ccc(O)c(O)c1)C(C)Cc1ccc(O)c(O)c1` (stereo not drawn) [compound 22, 4-[4-(3,4-dihydroxyphenyl)-2,3-dimethylbutyl]benzene-1,2-diol]: the inhibition at 20 µM stood at 98.5%. Further, the pIC50 (read-out: IC50) was 5.59.

For the molecule `O=C1C2CC=CCC2C(=O)N1SC(Cl)(Cl)Cl` (stereo not drawn) [compound 23, 2-(trichloromethylsulfanyl)-3a,4,7,7a-tetrahydroisoindole-1,3-dione], the inhibition at 20 µM was determined as 99.8%. For the same molecule, the pIC50 (read-out: IC50) was 6.17.

With `S=c1[nH]c2ccccc2s1` [compound 24, 3H-1,3-benzothiazole-2-thione], the inhibition at 20 µM was determined as 94%. In addition, where the note is “read-out: IC50”, the pIC50 was 5.76.

`c1ccc2sc(SNC3CCCCC3)nc2c1` [compound 26, N-(1,3-benzothiazol-2-ylsulfanyl)cyclohexanamine]: the inhibition at 20 µM is 70.1%. For the setting “read-out: IC50”, the pIC50 is 6.11.

For `c1ccc2sc(SN3CCOCC3)nc2c1` [compound 27, 4-(1,3-benzothiazol-2-ylsulfanyl)morpholine], the inhibition at 20 µM is 99%. The pIC50 (read-out: IC50) is 5.30.

With `CCC(C)SSc1ncc[nH]1` (stereo not drawn) [compound 28, (2-Imidazolyl)(1-methylpropyl)disulfide], the inhibition at 20 µM worked out at 100%.

Turning to `O=C(O)c1ccc(SSc2ccc(C(=O)O)cn2)nc1` [compound 29, 6-[(5-carboxypyridin-2-yl)disulfanyl]pyridine-3-carboxylic acid], the inhibition at 20 µM was determined as 100%. Also, for the setting “read-out: IC50”, the pIC50 is 6.62.

`Oc1ccc2ccccc2c1SSc1c(O)ccc2ccccc12` [compound 30, 1,1'-Disulfanediylbis(2-naphthol)]: the inhibition at 20 µM came out at 91.3%. Further, the pIC50 (read-out: IC50) was 6.29.

Take `O=C1C=Cc2cc(Br)ccc2C1=O` [compound 32, 6-Bromonaphthalene-1,2-dione]: the inhibition at 20 µM came to 102%. The pIC50 (read-out: IC50) was 7.40.

Regarding `C=CC(=O)c1ccc2ccccc2c1` [compound 33, 1-naphthalen-2-ylprop-2-en-1-one], the inhibition at 20 µM amounted to 94.5%. The pIC50 (read-out: IC50) is 5.91.

`Nc1ccc(O)c2ncccc12` [compound 34, 5-aminoquinolin-8-ol]: the inhibition at 20 µM was found to be 99.3%. Moreover, the pIC50 (read-out: IC50) was 5.69.

Regarding `CCC(=O)OCN1C(=O)C=CC1=O` [compound 36, Propionic acid 2,5-dioxo-2,5-dihydro-1H-pyrrol-1-ylmethyl ester], the inhibition at 20 µM turned out to be 100%. The negative-log IC50 (pIC50) (read-out: IC50) is 6.54.

On to `CN(C)CCNc1nc2cc(O)ccc2c2c1C(=O)c1ccccc1-2` [compound 38, 6-[2-(Dimethylamino)ethylamino]-3-hydroxy-7H-indeno[2,1-c]quinolin-7-one dihydrochloride], for which the inhibition at 20 µM came to 96.1%. The pIC50 (read-out: IC50) is 5.52.

On to `CCCC[C@@H](C=O)NC(=O)[C@H](CC(C)C)NC(=O)OCc1ccccc1` [compound 39, N2-[(Benzyloxy)carbonyl]-N-[(2S)-1-oxohexan-2-yl]-L-leucinamide], for which the inhibition at 20 µM is 81%.

For the molecule `CC(C)[C@H](NC(=O)[C@H](CCC(=O)O)NC(=O)[C@H](CC(=O)O)NC(=O)OCc1ccccc1)C(=O)N[C@@H](CC(=O)O)C(=O)CF` [compound 40, N-(Benzyloxycarbonyl)-L-aspartyl-L-glutamyl-L-valyl-L-aspartylfluoromethane], the pIC50 was 8.00 and the inhibition at 20 µM is 100%.

`CC(=O)[O-].[Hg+][c]1ccccc1` [compound 42, acetyloxy(phenyl)mercury] gave a negative-log IC50 (pIC50) of 8.00.

`O=C1C(Cl)=C(Cl)C(=O)C(Cl)=C1Cl` [compound 43, 2,3,5,6-tetrachlorocyclohexa-2,5-diene-1,4-dione]: the inhibition at 20 µM was 101%. The pIC50 (read-out: IC50) was 7.70.

Regarding `Nc1nnc(Sc2ncc([N+](=O)[O-])s2)s1` [compound 44, 5-(5-Nitrothiazol-2-ylsulfanyl)-1,3,4-thiadiazol-2-amine], the inhibition at 20 µM turned out to be 99.9%. The pIC50 (read-out: IC50) is 7.52.

As for `CN(C)C(=S)SSC(=S)N(C)C` [compound 45, dimethylcarbamothioylsulfanyl N ,N-dimethylcarbamodithioate], the inhibition at 20 µM was 99.9%. Moreover, the pIC50 (read-out: IC50) is 7.30.

Regarding `CCN(CC)C(=S)SSC(=S)N(CC)CC` [compound 46, Tetraethylthioperoxydicarbonic diamide], the inhibition at 20 µM was 99.7%.

Turning to `[O-]n1ccccc1=S.[O-]n1ccccc1=S.[Zn+2]` [compound 47, Bis[1-hydroxy-2(1H)-pyiridinethionato]zinc], the “3CL-Pro Inhibition [%] Primary Screen (20 µM)” value was 99.7%. Moreover, the pIC50 (read-out: IC50) is 5.61.

Regarding `On1ccccc1=S` [compound 48, 1-hydroxypyridine-2-thione], the pIC50 was 7.30 and the inhibition at 20 µM is 101%.

For `O=c1sn(-c2cccc3ccccc23)c(=O)n1Cc1ccccc1` [compound 49, 4-Benzyl-2-(1-naphthyl)-1,2,4-thiadiazolidine-3,5-dione], the inhibition at 20 µM was found to be 101%.
